Here are results for six compounds from patent publication US8466291B2, “1,5-dideoxy-1,5-imino-D-glucitol compounds” (Academia Sinica, priority 2008, dated 2013).

Assay [1] deals with Bacteroids fragilis O-GlcNAcase (Bacteroides fragilis, UniProt Q5L8V6). In words: Michaelis-Menten/Lineweaver-Burk kinetic inhibition of O-GlcNAcase with 4MU-NAG substrate. Format: biochemical. The conditions noted are these: for Selectivity (KI O-GlcNAcase/KI HEX): Bacteroids fragilis O-GlcNAcase over human HEX B, Table 1. As for the experimental part: Bacteroids fragilis O-GlcNAcase, which is highly homologous to human O-GlcNAcase, was prepared as follows. Based on the genome sequence of B. fragilis (NCTC 9343) as disclosed in GenBank accession no. CR626927 (Oct. 23, 2008), a DNA fragment encoding the B. fragilis O-GlcNAcse was amplified via polymerase chain reaction (PCR), using the primers of: 5′-[…]-3′ (SEQ ID NO:1) (forward primer) and 5′-[…]-3′ (SEQ ID NO:2) (reverse primer). The PCR product was cloned into pGEM-T Easy vector (Promega) via cloning sites Nde1 and Xho1 and then subcloned into pET21b vector to produce expression plasmid pOGA, which encodes a fusion protein including O-GlcNAcase and a His6 tag at the C-terminus
Plasmid pOGA was transformed into E. coli BL21 (DE3) cells and a positive transformant was cultured in Luria-Bertani (LB) medium with ampicillin (100 μg/mL) overnight. The E. coli culture, transferred to fresh LB medium, was incubated at 37° C. and, when A600 of the culture reached 0.6, isopropyl-β-D-thiogalactopyranoside (final conc: 250 μM) was added to induce expression of O-GlcNAcse. The induced cells were further cultured at 16° C. overnight, harvested, and disrupted to produce a cell lysate. Upon centrifugation, the supernatant thus obtained was loaded onto a nickel-affinity column. After elution, a fraction containing O-GlcNAcse was collected and the enzyme contained therein was further purified by gel filtration using a Superdex 6 column. See Dennis et al., Nat Struct Mol Biol 2006, 13: 365-71. The purified protein was concentrated using a 10 kDa-cutoff concentrator and dialyzed against 20 mM HEPES (pH 7.5).
The reaction conditions for each enzyme are shown below:
O-GlcNAcase: reaction mixture (0.5 nM O-GlcNAcase (200 μL) in 50 mM citric acid, 100 mM NaCl, 0.1% BSA, 0.05-1.5 mM substrate, pH 4.25) was incubated at 30° C. for 25 minutes. The enzyme activity at different time points was determined by measuring the levels of the fluorescent signals (excitation wavelength: 360 nm; emission wavelength: 460 nm) released from 4-methylumbelliferone, a product of the enzyme reaction.
(§1) In these reactions, the substrate concentrations were three to five fold of the concentration used for determining KM (absent compounds) and the ratio between the enzyme and the compound was 0.1-0.5 nM to 0.3 nM-200 uM. The data thus obtained were analyzed by the Lineweaver-Burk plot. The K1 values were determined by the double reciprocal plot (1/V vs. 1/[S]). More specifically, the Km values for each enzyme in the presence of one of the test compounds first determined and these values were further plotted in view of the concentrations of the compound. K1 was determined by calculating the negative value of the resulting x-intercept. The selectivity of each compound was calculated by the formula: K1 O-GlcNAcase/K1 Hex B.

Assay [2] addresses T1, Human HEX B (Homo sapiens, UniProt P07686).
T1 construct: Hex B protein (isolated from human placenta) was purchased from Sigma Co; purchased Sigma Co; host or cells: human placenta
In words: Michaelis-Menten/Lineweaver-Burk kinetic inhibition of Hex B with 4MU-NAG substrate. Format: biochemical. How it is done:
Hex B protein (isolated from human placenta) was purchased from Sigma Co.
Both O-GlcNAcase and Hex B were subjected to Michaelis-Menton kinetic analysis to determine the kinetics of their enzymatic activity in the presence of absence of Compounds 1-5 and Compound ix, using 4-methylumbelliferyl-N-acetyl-β-D-glucosaminide (4MU-NAG; purchased from Sigma Co.) as the substrate (a fluorogenic substrate). The reaction conditions for each enzyme are shown below:
Hex B: reaction mixture (0.1 nM Hex B (200 μL), 50 mM NaH2PO4, 100 mM NaCl, 0.1% BSA, 0.05-1.5 mM substrate, pH 6.5) was incubated at 30° C. for 25 minutes. The reaction was terminated by addition of a 3× quenching buffer (200 mM sodium glycine buffer, pH 10.8). The enzyme activity was determined as described above.
as §1, with “To determine the effects of Compounds 1-5 and Compound ix on the kinetics of both enzymes, the enzyme reactions described above were performed in the presence of each compound at different concentrations. In” for “In”

For assay [3], the target named is T2, Human O-GlcNAcase (Homo sapiens, UniProt O60502).
T2 construct: made in house
T2 sequence (O60502 1-916): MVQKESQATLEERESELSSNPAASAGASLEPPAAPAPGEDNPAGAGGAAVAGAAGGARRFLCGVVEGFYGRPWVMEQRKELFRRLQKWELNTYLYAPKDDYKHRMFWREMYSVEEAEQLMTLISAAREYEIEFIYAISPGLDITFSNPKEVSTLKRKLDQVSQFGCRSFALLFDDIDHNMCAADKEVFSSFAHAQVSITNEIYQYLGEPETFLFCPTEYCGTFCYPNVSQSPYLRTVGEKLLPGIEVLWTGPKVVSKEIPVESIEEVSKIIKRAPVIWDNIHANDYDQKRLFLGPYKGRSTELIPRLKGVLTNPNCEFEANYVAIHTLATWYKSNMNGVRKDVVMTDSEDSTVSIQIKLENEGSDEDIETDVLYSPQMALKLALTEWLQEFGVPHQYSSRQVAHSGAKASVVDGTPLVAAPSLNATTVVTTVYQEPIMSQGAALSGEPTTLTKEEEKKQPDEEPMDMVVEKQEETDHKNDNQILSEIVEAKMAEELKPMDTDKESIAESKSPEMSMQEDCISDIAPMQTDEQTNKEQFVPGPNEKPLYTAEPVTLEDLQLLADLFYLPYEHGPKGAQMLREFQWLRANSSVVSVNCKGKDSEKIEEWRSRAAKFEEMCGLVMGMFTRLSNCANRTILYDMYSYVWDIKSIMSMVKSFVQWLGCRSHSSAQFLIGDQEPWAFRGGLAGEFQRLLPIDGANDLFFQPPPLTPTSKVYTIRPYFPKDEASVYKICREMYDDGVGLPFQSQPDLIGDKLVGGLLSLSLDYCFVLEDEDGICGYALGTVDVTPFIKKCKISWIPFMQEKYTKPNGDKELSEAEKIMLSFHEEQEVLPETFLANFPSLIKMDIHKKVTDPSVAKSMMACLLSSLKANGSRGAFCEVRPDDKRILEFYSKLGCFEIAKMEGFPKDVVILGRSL
In words: Inhibition of human O-GlcNAcase. Format: biochemical. The conditions noted are these: Table 2; for Selectivity (KI O-GlcNAcase/KI HEX): Human O-GlcNAcase over human HEX B; for Ki: Human O-GlcNAcase. As for the experimental part: Human O-GlcNAcase was also prepared and tested according to the procedures described in Gao et al., J. Biol. Chem. 2001, 276, 9838-9845 and Macauley et al., J. Am. Chem. Soc. 2005, 127, 17202-17203.

The target in assay [4] is T3, O-GlcNAcase in human 293T cells (Homo sapiens, UniProt O60502).
T3 construct: endogenous in cells; host or cells: 293T cells
T3 sequence (O60502 1-916): T2 sequence (O60502 1-916)
Briefly: Level of protein-associated O-GlcNAc in treated 293T cells by Western blot. Format: cell-based. The conditions noted are these: 10 μM, 16 hours, Western blot with anti-O-GlcNAc antibody, versus un-treated cells. As for the experimental part: Additionally, Compounds 1 and 3 were tested to determine their inhibitory effects on O-GlcNAcase in human 293T cells. The cells were treated with 10 μM Compound 1 or 3 for 16 hours. The level of protein-associated O-GlcNAc moieties in the treated cells was determined by Western blot analysis using an anti-O-GlcNAc antibody. See Macauley et al., J. Biol. Chem. 2005, 280, 25313-25322. Two known O-GlcNAcase inhibitors, PUGNAc (10 μM) and STZ (10 μM), were used as positive controls (Hanover et al., Arch Biochem. Biophys. 1999, 362, 38-45 and Rao et al., EMBO J. 2006, 25, 1569-1578).

The subject of assay [5] is BV2 cells. Briefly: GM2 ganglioside level in BV2 cells by high performance thin-layer chromatography. Format: cell-based, mouse. The conditions noted are these: 200 nM, 10 days, HPTLC. How it is done: Glycosphingolipids (e.g., GM2) were extracted from the treated cells with chloroform/methanol and the ganglioside levels were determined by high performance thin-layer chromatography.

Molecules are shown by their SMILES.

T1 sequence (P07686 315-556 limits assumed): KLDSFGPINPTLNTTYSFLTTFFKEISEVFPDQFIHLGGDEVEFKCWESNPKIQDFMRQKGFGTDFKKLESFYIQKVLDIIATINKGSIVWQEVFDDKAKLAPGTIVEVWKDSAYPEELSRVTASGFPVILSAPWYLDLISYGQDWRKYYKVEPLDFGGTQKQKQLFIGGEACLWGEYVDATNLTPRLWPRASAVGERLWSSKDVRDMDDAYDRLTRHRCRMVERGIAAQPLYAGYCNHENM
T1 sequence (P07686 122-311 limits assumed): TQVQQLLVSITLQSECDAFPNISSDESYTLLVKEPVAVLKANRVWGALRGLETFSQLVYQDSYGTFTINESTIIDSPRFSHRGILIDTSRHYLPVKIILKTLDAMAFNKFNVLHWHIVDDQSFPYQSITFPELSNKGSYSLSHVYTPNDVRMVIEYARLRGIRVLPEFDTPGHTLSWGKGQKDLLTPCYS
T1 sequence (P07686 50-107 partner limits assumed): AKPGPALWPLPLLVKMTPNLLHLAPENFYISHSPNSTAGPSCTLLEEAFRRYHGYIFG
Chain of Bacteroids fragilis O-GlcNAcase (Q5L8V6 entry or part of it): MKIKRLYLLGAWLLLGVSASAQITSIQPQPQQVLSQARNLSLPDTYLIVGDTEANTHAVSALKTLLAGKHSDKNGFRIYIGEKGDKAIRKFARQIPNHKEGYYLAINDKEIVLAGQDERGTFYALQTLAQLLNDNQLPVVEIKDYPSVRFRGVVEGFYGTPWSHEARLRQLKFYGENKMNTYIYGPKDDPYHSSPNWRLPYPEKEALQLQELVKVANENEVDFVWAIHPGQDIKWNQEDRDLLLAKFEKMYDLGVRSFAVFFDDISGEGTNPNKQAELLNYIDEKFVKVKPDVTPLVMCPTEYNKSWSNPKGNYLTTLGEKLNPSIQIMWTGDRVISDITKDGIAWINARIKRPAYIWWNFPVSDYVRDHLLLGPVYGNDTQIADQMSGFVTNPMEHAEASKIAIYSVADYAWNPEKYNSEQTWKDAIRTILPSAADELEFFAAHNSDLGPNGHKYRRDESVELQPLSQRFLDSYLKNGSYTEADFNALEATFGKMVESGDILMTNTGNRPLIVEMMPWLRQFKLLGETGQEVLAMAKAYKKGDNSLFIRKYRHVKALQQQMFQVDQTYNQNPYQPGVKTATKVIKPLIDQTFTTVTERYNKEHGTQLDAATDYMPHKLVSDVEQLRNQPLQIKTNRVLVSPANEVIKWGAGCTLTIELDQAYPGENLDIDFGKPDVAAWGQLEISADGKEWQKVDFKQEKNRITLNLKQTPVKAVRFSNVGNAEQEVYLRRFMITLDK

Take `COc1ccc(CN(CCCCCCCN2CC(NC(C)=O)C(O)C(O)C2CO)Cc2ccc(OC)cc2)cc1` (stereo not drawn) [Compound 3]: the Ki in assay [1] is 129 ± 2.55 µM; in assay [2] (Table 1) it was 0.00069 ± 7.7e-05 µM; in assay [2] (Table 2), 0.00069 ± 7.7e-05 µM; in assay [3] it was 176 ± 2.15 µM. Also, the results for the “Selectivity (KI O-GlcNAcase/KI HEX)” value in assay [1] and in assay [3] were 190,000 and 250,000, respectively. Moreover, the “level of O-GlcNAc moieties in treated cells” value (“level of O-GlcNAc moieties” for short) in assay [4] was “not significantly different than that in un-treated cells”. In addition, in assay [5], the “GM2 level in treated cells” value is given as “significantly increased”.

On to `CC(=O)N[C@H]1/C(=N/OC(=O)Nc2ccccc2)O[C@H](CO)[C@@H](O)[C@@H]1O` [PUGNAc, reference compound], for which the “level of O-GlcNAc moieties” value in assay [4] is “notably increased”. Besides, in assay [5], the “GM2 level in treated cells” value is “only modestly increased”.

Turning to `CN(N=O)C(=O)N[C@@H]1[C@@H](O)[C@H](O)[C@@H](CO)O[C@@H]1O` [STZ, reference compound], the “level of O-GlcNAc moieties” value in assay [4] is “notably increased”.

Regarding `CC(=O)NC1CN(CCCCCCCN=[N+]=[N-])C(CO)C(O)C1O` (stereo not drawn) [Compound 4], the Ki in assay [1] came to 95.7 ± 8.37 µM; in assay [2] (Table 1), 1.7 ± 0.56 µM; in assay [2] (Table 2), 1.7 ± 0.56 µM; in assay [3], 155 ± 9.87 µM. For the same compound, the “Selectivity (KI O-GlcNAcase/KI HEX)” value in assay [1] was determined as 56; in assay [3] it was 91.

Take `COc1ccc(CNCCCCCCCN2CC(NC(C)=O)C(O)C(O)C2CO)cc1` (stereo not drawn) [Compound 2]: the Ki in assay [1] came to 72.1 ± 0.88 µM; in assay [2] (Table 1), 0.0012 ± 0.00023 µM; in assay [2] (Table 2) it was 0.0012 ± 0.00023 µM; in assay [3] it was 102 ± 6.47 µM. Further, the “Selectivity (KI O-GlcNAcase/KI HEX)” value in assay [1] is given as 60,000; in assay [3] it was 85,000.

Consider `CC(=O)NC1CN(CCCCCCCN)C(CO)C(O)C1O` [Compound 1, N-[1(7-Amino-heptyl)]-2-acetamido-1,2,5-trideoxy-1,5-imino-D-glucitol], for which the Ki in assay [1] came out at 75.3 ± 9.13 µM; in assay [2] (Table 1), 0.0021 ± 0.00038 µM; in assay [2] (Table 2), 0.0021 ± 0.00038 µM; in assay [3], 108 ± 9.17 µM. In addition, the “Selectivity (KI O-GlcNAcase/KI HEX)” value in assay [1] is listed as 36,000; in assay [3] it was 51,000. Besides, the “level of O-GlcNAc moieties” value in assay [4] was “not significantly different than that in un-treated cells”.

By Ki is commonly meant a dissociation constant, usually derived from enzyme kinetics or from competition with a known ligand. A lower Ki goes with tighter binding.
